Among the data in patent US12091425B2 (AMGEN INC., priority 2016, dated 2024) are IC50 values, retold here.

Structures are written as SMILES.

For test [1], the system named is OPM-2 human multiple myeloma cell line. Description: Cell Viability Assay (OPM-2 10 FBS). The class given is cell-based. The conditions noted are these: OPM-2 cells, CellTiter-Glo. An outline of the steps:
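IC50 from 4-parameter logistic fit of CellTiter-Glo luminescence. 3000 cells/well, 10% FBS medium, serial compound dilutions, 16 h, 37 °C/5% CO2; read 25 min post-reagent.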
Background: In ATP-based viability assays light output follows the ATP content of the culture.

The target in test [2] is T1, Mcl-1/Bim interaction, recombinant human Mcl-1 (171-327) (Homo sapiens, UniProt Q07820).
T1 construct: made in house
Description: Cell free Mcl-1: Bim Affinity Assay (Mcl-1 HTRF). Format: binding. In a few lines:
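Displacement of biotinylated Bim 51-76 peptide is followed by TR-FRET. Incubation runs overnight. Duplicate points are fitted with a four-parameter sigmoid to yield IC50.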
(TR-FRET usually uses a lanthanide donor and a delayed reading to cut background.)

The mark [3] stands for this setting: cell free Mcl-1:Bim TR-FRET, recombinant human Mcl-1 (171-327).
Setting [4] is: Homo sapiens, OPM-2, 16 h, 16 h.
Setting [5] is: TR-FRET, 0.1 nM Mcl-1 (171-327), 0.05 nM biotin-Bim (51-76).
Setting [6] is: Homo sapiens, OPM-2, 16 h, 16 h incubation.

T1 sequence (Q07820 171-327): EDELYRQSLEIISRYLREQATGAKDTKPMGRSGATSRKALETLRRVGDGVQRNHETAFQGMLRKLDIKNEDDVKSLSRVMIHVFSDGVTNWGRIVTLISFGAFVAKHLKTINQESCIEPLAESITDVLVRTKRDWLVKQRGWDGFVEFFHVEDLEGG

A word on the IC50: it is the concentration needed to halve the response being measured. Turning to `CC(C)OC(=O)C[C@@H]1[C@@H](C)C/C=C\[C@H](O)[C@@H]2CC[C@H]2CN2C[C@@]3(CCCc4cc(Cl)ccc43)COc3ccc(cc32)C(=O)NS1(=O)=O` [Example 570], the values for the IC50 in test [1] (16 h) and in test [2] (setting [3]) were 3020 nM and 8.44 nM, respectively.

With `CO[C@H]1/C=C/C[C@H]2C[C@@H]2S(=O)(=O)NC(=O)c2ccc3c(c2)N(C[C@@H]2CC[C@H]21)C[C@@]1(CCCc2cc(Cl)ccc21)CO3` (single isomer, unassigned) [Example 804], the results for the IC50 in test [1] (16 h) and in test [2] (setting [3]) were 377 nM and 0.658 nM, respectively.

As for `CNC(=O)CN1CC/C=C/[C@H](O)[C@@H]2CC[C@H]2CN2C[C@@]3(CCCc4cc(Cl)ccc43)COc3ccc(cc32)C(=O)NS1(=O)=O` [Example 23, 2-((1S,3′R,6′R,7′S,8′E)-6-chloro-7′-hydroxy-13′,13′-dioxido-15′-oxo-3,4-dihydro-2H,12′H-spiro[naphthalene-1,22′-[20]oxa[13]thia[1,12,14]triazatetracyclo[14.7.2.0^3,6.0^19,24]pentacosa[8,16,18,24]tetraen]-12′-yl)-N-methylacetamide], the values for the IC50 in test [1] (setting [4]) and in test [2] (setting [5]) were 3210 nM and 0.314 nM, respectively.

On to `CC(C)C[C@@H]1C[C@@H](C)/C=C/[C@H](O)[C@@H]2CC[C@H]2CN2C[C@@]3(CCCc4cc(Cl)ccc43)COc3ccc(cc32)C(=O)NS1(=O)=O` (single isomer, unassigned) [Example 480], for which the figures for the IC50 in test [1] (16 h) and in test [2] (setting [3]) were 1080 nM and 0.394 nM, respectively.

As to `COC(=O)CO[C@H]1/C=C/CC[C@@H](C2CC2)S(=O)(=O)NC(=O)c2ccc3c(c2)N(C[C@@H]2CC[C@H]21)C[C@@]1(CCCc2cc(Cl)ccc21)CO3` (single isomer, unassigned) [Example 161], the results for the IC50 in test [1] (16 h) and in test [2] (setting [5]) were 86 nM and 1.31 nM, respectively.

Regarding `COCCO[C@@H]1/C=C/CCCS(=O)(=O)NC(=O)c2ccc3c(c2)N(C[C@@H]2CC[C@H]21)C[C@@]1(CCCc2cc(Cl)ccc21)CO3` [Example 210, (1S,3′R,6′R,7′R,8′E)-6-chloro-7′-(2-methoxyethoxy)-3,4-dihydro-2H,15′H-spiro[naphthalene-1,22′-[20]oxa[13]thia[1,14]diazatetracyclo[14.7.2.0^3,6.0^19,24]pentacosa [8,16,18,24]tetraen]-15′-one 13′,13′-dioxide], the figures for the IC50 in test [1] (setting [4]) and in test [2] (setting [5]) were 1530 nM and 1.59 nM, respectively.

Take `C[C@@H]1[C@@H](C)C/C=C/[C@H](OCCO)[C@@H]2CC[C@H]2CN2C[C@@]3(CCCc4cc(Cl)ccc43)COc3ccc(cc32)C(=O)NS1(=O)=O` [Example 516, (1S,3′R,6′R,7′S,8′E,11′S,12′R)-6-chloro-7′-(2-hydroxyethoxy)-11′,12′-dimethyl-3,4-dihydro-2H,15′H-spiro[naphthalene-1,22′-[20]oxa[13]thia[1,14]diazatetracyclo[14.7.2.0^3,6.0^19,24]pentacosa[8,16,18,24]tetraen]-15′-one 13′,13′-dioxide]: the IC50 was found to be 72.5 nM in test [1] (setting [4]) and 0.27 nM in test [2] (setting [3]).

`C[C@@H]1[C@@H](C)C/C=C/[C@H](OC[C@H]2CCCO2)[C@@H]2CC[C@H]2CN2C[C@@]3(CCCc4cc(Cl)ccc43)COc3ccc(cc32)C(=O)NS1(=O)=O` [Example 510, (1S,3′R,6′R,7′S,8′E,11′S,12′R)-6-chloro-11′,12′-dimethyl-7′-((2R)-tetrahydro-2-furanylmethoxy)-3,4-dihydro-2H,15′H-spiro[naphthalene-1,22′-[20]oxa[13]thia[1,14]diazatetracyclo[14.7.2.0^3,6.0^19,24]pentacosa [8,16,18,24]tetraen]-15′-one 13′,13′-dioxide]: the IC50 in test [1] (setting [4]) came to 587 nM; in test [2] (setting [3]), 1.25 nM.

Take `CCC1CCC(OC)C=CC2CCC2CN2CC3(CCCc4cc(Cl)ccc43)COc3ccc(cc32)C(=O)NS1(=O)=O` (single isomer, unassigned) [Example 199]: the IC50 in test [1] (setting [4]) came to 10200 nM; in test [2] (setting [5]) it was 6.04 nM.

With `O=C1NS(=O)(=O)C[C@@H](CO)C/C=C/[C@H](O)[C@@H]2CC[C@H]2CN2C[C@@]3(CCCc4cc(Cl)ccc43)COc3ccc1cc32` [Example 1086, (1S,3′R,6′R,7′S,8′E,11′R)-6-chloro-7′-hydroxy-11′-(hydroxymethyl)-3,4-dihydro-2H,15′H-spiro [naphthalene-1,22′-[20]oxa[13]thia[1,14]diazatetracyclo[14.7.2.0^3,6.0^19,24]pentacosa [8,16,18,24]tetraen]-15′-one 13′,13′-dioxide], the IC50 in test [1] (setting [6]) came out at 8650 nM; in test [2] (setting [5]) it was 0.421 nM.

As to `COCCN1[C@@H](C)C/C=C/[C@H](OC)[C@@H]2CC[C@H]2CN2C[C@@]3(CCCc4cc(Cl)ccc43)COc3ccc(cc32)C(=O)NS1(=O)=O` [Example 27, (1S,3′R,6′R,7′S,8′E,11′S)-6-chloro-7′-methoxy-12′-(2-methoxyethyl)-11′-methyl-3,4-dihydro-2H,15′H-spiro[naphthalene-1,22′-[20]oxa[13]thia[1,12,14]triazatetracyclo[14.7.2.0^3,6.0^19,24]pentacosa[8,16,18,24]tetraen]-15′-one 13,13′-dioxide], the IC50 in test [1] (setting [4]) worked out at 970 nM; in test [2] (setting [5]), 0.422 nM.

For `O=C1NS(=O)(=O)C(c2ccccc2)CC/C=C/[C@H](O)[C@@H]2CC[C@H]2CN2C[C@@]3(CCCc4cc(Cl)ccc43)COc3ccc1cc32` (single isomer, unassigned) [Example 675], the IC50 in test [1] (16 h) is 480 nM; in test [2] (setting [3]) it was 0.437 nM.

Take `CC[C@@H]1CC/C=C/[C@H](OCc2nccn2C)[C@@H]2CC[C@H]2CN2C[C@@]3(CCCc4cc(Cl)ccc43)COc3ccc(cc32)C(=O)NS1(=O)=O` [Example 965, (1S,3′R,6′R,7′S,8′E,12′R)-6-chloro-12′-ethyl-7′-((1-methyl-1H-IMIDAZOL-2-yl)methoxy)-3,4-dihydro-2H,15′H-spiro[naphthalene-1,22′-[20]oxa[13]thia[1,14]diazatetracyclo[14.7.2.0^3,6.0^19,24]pentacosa [8,16,18,24]tetraen]-15′-one 13′,13′-dioxide]: the values for the IC50 in test [1] (setting [6]) and in test [2] (setting [5]) were 693 nM and 0.403 nM, respectively.

Turning to `Cc1nnc(C[C@@H]2CC/C=C/[C@H](O)[C@@H]3CC[C@H]3CN3C[C@@]4(CCCc5cc(Cl)ccc54)COc4ccc(cc43)C(=O)NS2(=O)=O)o1` (single isomer, unassigned) [Example 564], the IC50 is 3040 nM in test [1] (16 h) and 0.308 nM in test [2] (setting [3]).

Regarding `O=C1NS(=O)(=O)[C@H](Cc2nccs2)CC/C=C/[C@H](O)[C@@H]2CC[C@H]2CN2C[C@@]3(CCCc4cc(Cl)ccc43)COc3ccc1cc32` (single isomer, unassigned) [Example 373], the IC50 in test [1] (16 h) is 404 nM; in test [2] (setting [5]), 0.731 nM.

Take `COCCO[C@H]1/C=C/C[C@H](C)N(CCOC)S(=O)(=O)NC(=O)c2ccc3c(c2)N(C[C@@H]2CC[C@H]21)C[C@@]1(CCCc2cc(Cl)ccc21)CO3` (single isomer, unassigned) [Example 69]: the figures for the IC50 in test [1] (setting [4]) and in test [2] (setting [5]) were 276 nM and 0.529 nM, respectively.

As to `CO[C@@H]1/C=C/[C@H](O)[C@@H]2CC[C@H]2CN2C[C@@]3(CCCc4cc(Cl)ccc43)COc3ccc(cc32)C(=O)NS(=O)(=O)[C@@H](C)C1` (single isomer, unassigned) [Example 490], the values for the IC50 in test [1] (16 h) and in test [2] (setting [3]) were 7960 nM and 2.09 nM, respectively.

Regarding `CO[C@H]1C/C=C/[C@H](O)[C@@H]2CC[C@H]2CN2C[C@@]3(CCCc4cc(Cl)ccc43)COc3ccc(cc32)C(=O)NS(=O)(=O)[C@@H]1CC(C)C` (single isomer, unassigned) [Example 643], the values for the IC50 in test [1] (setting [4]) and in test [2] (setting [3]) were 151 nM and 0.337 nM, respectively.
